Inconclusive results and toxic doses are left out. No stated cut-off is given here; in the data, active means T/C of 150% or more; inactive means T/C below 125%.
Test system: L1210 leukemia ip in BDF1 mice, survival T/C
Experiment: NCI In Vivo Anticancer Drug Screen. Data for tumor model L1210 Leukemia (intraperitoneal) in B6D2F1 (BDF1) mice
Details: endpoint: mean survival time, higher = longer survival
Procedure, shortened: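 Read-out is survival time, reported as the treated-group measurement over the vehicle-control measurement.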

[1] = dose: 75.0 mg/kg/injection, schedule: Q01DX001 (ip), vehicle: saline
[2] = dose: 100.0 mg/kg/injection, schedule: Q01DX009 (ip), vehicle: Klucel (hydroxypropylcellulose) (HPC)
[3] = dose: 200.0 mg/kg/injection, schedule: Q01DX009 (ip), vehicle: Klucel (hydroxypropylcellulose) (HPC)
[4] = dose: 100.0 mg/kg/injection, schedule: Q04DX003 (ip), vehicle: saline with Tween-80
[5] = dose: 100.0 mg/kg/injection, schedule: Q01DX009 (ip), vehicle: saline with Tween-80
[6] = dose: 100.0 mg/kg/injection, schedule: Q04DX002 (ip), vehicle: Klucel (hydroxypropylcellulose) (HPC)
[7] = dose: 200.0 mg/kg/injection, schedule: Q04DX002 (ip), vehicle: Klucel (hydroxypropylcellulose) (HPC)
[8] = dose: 400.0 mg/kg/injection, schedule: Q04DX002 (ip), vehicle: Klucel (hydroxypropylcellulose) (HPC)
[9] = dose: 100.0 mg/kg/injection, schedule: Q01DX001 (ip), vehicle: saline
[10] = dose: 200.0 mg/kg/injection, schedule: Q01DX001 (ip), vehicle: saline
[11] = dose: 100.0 mg/kg/injection, schedule: Q04DX003 (ip), vehicle: Klucel (hydroxypropylcellulose) (HPC)
[12] = dose: 200.0 mg/kg/injection, schedule: Q04DX003 (ip), vehicle: Klucel (hydroxypropylcellulose) (HPC)
[13] = dose: 400.0 mg/kg/injection, schedule: Q04DX003 (ip), vehicle: Klucel (hydroxypropylcellulose) (HPC)

Measured: T/C

C[N+]1(CCl)CCOCC1
inactive: dose: 1.74 mg/kg/injection, schedule: Q01DX009 (ip), vehicle: saline 104 % of control | dose: 2.6 mg/kg/injection, schedule: Q01DX009 (ip), vehicle: saline 104 % of control | dose: 4.0 mg/kg/injection, schedule: Q01DX001 (ip), vehicle: saline 105 % of control | dose: 4.0 mg/kg/injection, schedule: Q01DX009 (ip), vehicle: saline 94 % of control | dose: 4.0 mg/kg/injection, schedule: Q04DX003 (ip), vehicle: saline 100 % of control | dose: 4.0 mg/kg/injection, schedule: Q08DX002 (ip), vehicle: saline 105 % of control | dose: 6.0 mg/kg/injection, schedule: Q01DX001 (ip), vehicle: saline 102 % of control | dose: 6.0 mg/kg/injection, schedule: Q01DX009 (ip), vehicle: saline 102 % of control | dose: 6.0 mg/kg/injection, schedule: Q04DX003 (ip), vehicle: saline 98 % of control | dose: 6.0 mg/kg/injection, schedule: Q08DX002 (ip), vehicle: saline 111 % of control | dose: 9.0 mg/kg/injection, schedule: Q01DX009 (ip), vehicle: saline 100 % of control | dose: 10.0 mg/kg/injection, schedule: Q01DX001 (ip), vehicle: saline 102 % of control | dose: 10.0 mg/kg/injection, schedule: Q04DX003 (ip), vehicle: saline 105 % of control | dose: 10.0 mg/kg/injection, schedule: Q08DX002 (ip), vehicle: saline 104 % of control | dose: 14.0 mg/kg/injection, schedule: Q01DX001 (ip), vehicle: saline 104 % of control | dose: 14.0 mg/kg/injection, schedule: Q04DX003 (ip), vehicle: saline 102 % of control | dose: 14.0 mg/kg/injection, schedule: Q08DX002 (ip), vehicle: saline 107 % of control | dose: 21.0 mg/kg/injection, schedule: Q01DX001 (ip), vehicle: saline 102 % of control | dose: 21.0 mg/kg/injection, schedule: Q04DX003 (ip), vehicle: saline 100 % of control | dose: 21.0 mg/kg/injection, schedule: Q08DX002 (ip), vehicle: saline 100 % of control | [1] 98 % of control | dose: 150.0 mg/kg/injection, schedule: Q01DX001 (ip), vehicle: saline 107 % of control

Cc1ccc(N2C(=O)CC(NC3CCCCC3)C2=O)cc1 (configuration not stated)
inactive: [2] 97 % of control | [3] 100 % of control | dose: 400.0 mg/kg/injection, schedule: Q01DX009 (ip), vehicle: Klucel (hydroxypropylcellulose) (HPC) 97 % of control

CC(CCOS(C)(=O)=O)OS(C)(=O)=O (configuration not stated)
inactive: [4] 112 % of control | dose: 200.0 mg/kg/injection, schedule: Q04DX003 (ip), vehicle: saline with Tween-80 107 % of control | dose: 400.0 mg/kg/injection, schedule: Q04DX003 (ip), vehicle: saline with Tween-80 88 % of control

O[Si](c1ccccc1)(c1ccccc1)c1ccccc1
inactive: [5] 95 % of control | dose: 100.0 mg/kg/injection, schedule: Q04DX002 (ip), vehicle: saline with Tween-80 100 % of control | dose: 200.0 mg/kg/injection, schedule: Q01DX009 (ip), vehicle: saline with Tween-80 88 % of control | dose: 200.0 mg/kg/injection, schedule: Q04DX002 (ip), vehicle: saline with Tween-80 96 % of control | dose: 400.0 mg/kg/injection, schedule: Q01DX009 (ip), vehicle: saline with Tween-80 91 % of control | dose: 400.0 mg/kg/injection, schedule: Q04DX002 (ip), vehicle: saline with Tween-80 87 % of control

CC[N+](C)(C)C1CCCCC1
inactive: [1] 94 % of control

Cc1c(CC#N)cc(C)c2c3c([nH]c12)-c1ccccc1CC3
inactive: dose: 50.0 mg/kg/injection, schedule: Q04DX002 (ip), vehicle: Klucel (hydroxypropylcellulose) (HPC) 102 % of control | [6] 106 % of control | [7] 102 % of control | [8] 104 % of control

Cc1cc(C)c(CN)cc1CN
inactive: dose: 25.0 mg/kg/injection, schedule: Q01DX009 (ip), vehicle: saline with Tween-80 95 % of control | dose: 50.0 mg/kg/injection, schedule: Q01DX009 (ip), vehicle: saline with Tween-80 98 % of control | [5] 100 % of control | [4] 97 % of control

Cc1ccc(S(=O)(=O)N/N=C/C=C/C=N/NS(=O)(=O)c2ccc(C)cc2)cc1
inactive: [6] 97 % of control | [7] 103 % of control | [8] 94 % of control

CC(=O)Nc1cc2[nH]c(=O)c3ccccc3c2cc1Cl
inactive: dose: 100.0 mg/kg/injection, schedule: Q01DX001 (ip), vehicle: carboxymethylcellulose (CMC) 100 % of control | dose: 200.0 mg/kg/injection, schedule: Q01DX001 (ip), vehicle: carboxymethylcellulose (CMC) 105 % of control | dose: 400.0 mg/kg/injection, schedule: Q01DX001 (ip), vehicle: carboxymethylcellulose (CMC) 93 % of control

COC(=O)C1OC(CO)C(O)C1O (configuration not stated)
inactive: [9] 105 % of control | dose: 100.0 mg/kg/injection, schedule: Q04DX003 (ip), vehicle: saline 110 % of control | [10] 113 % of control | dose: 200.0 mg/kg/injection, schedule: Q04DX003 (ip), vehicle: saline 107 % of control | dose: 400.0 mg/kg/injection, schedule: Q01DX001 (ip), vehicle: saline 97 % of control | dose: 400.0 mg/kg/injection, schedule: Q04DX003 (ip), vehicle: saline 110 % of control

O=C(Cl)C(c1ccccc1)c1ccccc1
inactive: [11] 108 % of control | [12] 98 % of control | [13] 96 % of control

O=[N+]([O-])C(Br)(c1ccccc1)S(=O)(=O)Cc1ccccc1 (configuration not stated)
inactive: [2] 95 % of control | [11] 100 % of control | [3] 101 % of control | [12] 95 % of control | [13] 102 % of control

CCC(C)c1ccc(OCCO)cc1 (configuration not stated)
inactive: [9] 97 % of control | [10] 90 % of control

O=NN(CC(=O)O)C(c1ccccc1)(c1ccccc1)c1ccccc1Cl
inactive: [11] 95 % of control | [12] 93 % of control

Cc1cc[n+](Cc2cc3ccccc3[nH]c2=O)cc1
inactive: dose: 12.5 mg/kg/injection, schedule: Q01DX001 (ip), vehicle: saline 96 % of control | dose: 25.0 mg/kg/injection, schedule: Q01DX001 (ip), vehicle: saline 100 % of control | dose: 50.0 mg/kg/injection, schedule: Q01DX001 (ip), vehicle: saline 95 % of control

COc1cc2c(cc1[N+](=O)[O-])-c1ccc([N+](=O)[O-])cc1/C2=N/NC(N)=S
inactive: dose: 75.0 mg/kg/injection, schedule: Q01DX001 (ip), vehicle: carboxymethylcellulose (CMC) 101 % of control

C[PH+](c1ccccc1)c1ccccc1.C[PH+](c1ccccc1)c1ccccc1.[Cl][Pd][Cl]
inactive: dose: 75.0 mg/kg/injection, schedule: Q04DX003 (ip), vehicle: saline 112 % of control | dose: 150.0 mg/kg/injection, schedule: Q04DX003 (ip), vehicle: saline 107 % of control | dose: 300.0 mg/kg/injection, schedule: Q04DX003 (ip), vehicle: saline 104 % of control

O=C(O)c1ccccc1[N+](=O)[O-]
inactive: dose: 100.0 mg/kg/injection, schedule: Q01DX001 (ip), vehicle: Klucel (hydroxypropylcellulose) (HPC) 99 % of control | dose: 200.0 mg/kg/injection, schedule: Q01DX001 (ip), vehicle: Klucel (hydroxypropylcellulose) (HPC) 97 % of control | dose: 400.0 mg/kg/injection, schedule: Q01DX001 (ip), vehicle: Klucel (hydroxypropylcellulose) (HPC) 96 % of control

From PubChem BioAssay AID248 (DTP/NCI, 2004)
